Molecular target: Dipeptidyl peptidase 4 (Homo sapiens, UniProt P27487)
Experiment: Biological Assay: 50 μl of substrate solution (AFC; AFC is amido-4-trifluoromethylcoumarin), final concentration 100 μM, was placed in black microtitre plates. 20 μl of assay buffer (final concentrations 50 mM Tris HCl pH 7.8, 50 mM NaCl, 1% DMSO) was pipetted therein. The reaction was started by the addition of 30 μl of solubilized Caco-2 protein (final concentration 0.14 μg of protein per well). The test substances under investigation were typically added prediluted to 20 μl, while the volume of assay buffer was then reduced accordingly. The reaction was carried out at ambient temperature, the incubation period was 60 minutes. Then the fluorescence was measured in a Victor 1420 Multilabel Counter, with the excitation wavelength at 405 nm and the emission wavelength at 535 nm.

Dipeptidyl peptidase 4, sequence (P27487 whole entry): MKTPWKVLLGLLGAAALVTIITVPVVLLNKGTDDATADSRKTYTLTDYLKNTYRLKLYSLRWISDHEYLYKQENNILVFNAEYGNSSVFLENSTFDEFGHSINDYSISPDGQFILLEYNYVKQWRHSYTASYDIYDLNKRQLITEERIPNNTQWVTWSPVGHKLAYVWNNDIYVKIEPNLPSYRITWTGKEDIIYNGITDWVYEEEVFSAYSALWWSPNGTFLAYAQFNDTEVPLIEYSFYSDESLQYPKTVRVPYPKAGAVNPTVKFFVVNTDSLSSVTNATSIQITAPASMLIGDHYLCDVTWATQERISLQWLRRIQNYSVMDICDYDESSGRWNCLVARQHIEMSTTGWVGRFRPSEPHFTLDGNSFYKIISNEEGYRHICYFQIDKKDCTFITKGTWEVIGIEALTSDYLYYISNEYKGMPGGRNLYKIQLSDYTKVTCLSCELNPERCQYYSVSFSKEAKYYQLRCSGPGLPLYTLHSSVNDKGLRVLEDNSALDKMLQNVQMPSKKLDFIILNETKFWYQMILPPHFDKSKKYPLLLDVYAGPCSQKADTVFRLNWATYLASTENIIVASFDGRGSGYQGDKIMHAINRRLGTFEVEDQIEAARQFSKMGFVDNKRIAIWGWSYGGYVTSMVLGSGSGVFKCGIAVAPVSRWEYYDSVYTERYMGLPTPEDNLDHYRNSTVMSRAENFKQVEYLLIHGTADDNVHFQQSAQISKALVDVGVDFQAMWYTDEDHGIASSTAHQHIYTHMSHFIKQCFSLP

Structure (SMILES) | IC50 [nM]
CC#CCn1c(N2CCCC(NC(=O)OC(C)(C)C)C2)nc2c1c(=O)n(Cc1nc(NCc3ccccc3)c3ccccc3n1)c(=O)n2C (stereo not given) | 6
CC#CCn1c(N2CCC[C@@H](NC(=O)OC(C)(C)C)C2)nc2c1c(=O)n(Cc1cc(C#N)cc3ccccc13)c(=O)n2C | 6
CC#CCn1c(N2CCC[C@@H](NC(=O)OC(C)(C)C)C2)nc2c1c(=O)n(Cc1nc(-c3ccccc3)nc3ccccc13)c(=O)n2C | 9
CC#CCn1c(N2CCC[C@@H](NC(=O)OC(C)(C)C)C2)nc2c1c(=O)n(Cc1cc(C#N)c3ccccc3n1)c(=O)n2C | 2
CC#CCn1c(N2CCC[C@@H](NC(=O)OC(C)(C)C)C2)nc2c1c(=O)n(CC(=O)c1cccc(OC3CC3)c1)c(=O)n2C | 5
CC#CCn1c(N2CCC[C@@H](NC(=O)OC(C)(C)C)C2)nc2c1c(=O)n(Cc1ccc3nc(C)c(C)nc3c1)c(=O)n2C | 2
CC#CCn1c(N2CCC[C@@H](NC(=O)OC(C)(C)C)C2)nc2c1c(=O)n(CC(=O)c1ccccc1Br)c(=O)n2C | 2
CC#CCn1c(N2CCC[C@@H](NC(=O)OC(C)(C)C)C2)nc2c1c(=O)n(Cc1nc3ccccc3c(C)c1C#N)c(=O)n2C | 2
CC#CCn1c(N2CCC[C@@H](NC(=O)OC(C)(C)C)C2)nc2c1c(=O)n(Cc1nccc(-c3ccccc3)n1)c(=O)n2C | 2
CC#CCn1c(N2CCC[C@@H](NC(=O)OC(C)(C)C)C2)nc2c1c(=O)n(CC(=O)c1ccccc1[N+](=O)[O-])c(=O)n2C | 3

Source: ChEMBL document CHEMBL3638448, “8-[3-amino-piperidin-1-yl]-xanthines, their preparation and their use as pharmaceutical compositions” (2014)
